Measurements from publication PMC4289246, “Dose-dependent effects of lesogaberan on reflux measures in patients with refractory gastroesophageal reflux disease: a randomized, placebo-controlled study” (BMC Gastroenterology, 2014).

Key:
[1] = test system: partial responders to PPI treatment; parameters: method as in earlier work; details: cited from earlier work
[2] = test system: patients with GERD who had a partial response to PPI treatment; experiment: Safety and tolerability assessments; assay type: in vivo, human
Protocol: Sitting and orthostatic blood pressure and pulse rate were also assessed pre-dose and 2 h after the first dose of lesogaberan or placebo at each treatment visit. Patients ate meals (standardized primarily according to fat content and pH) approximately 1 h after each dose of study medication or placebo, and at the same time points during each study period. Patients were monitored for adverse events from the first dose administration until the follow-up visit 5–10 days after receiving the last dose. The active treatment period for each dose was defined as the time from the first dose of study drug to 24 h after the second dose of study drug in each treatment period. Patients also underwent active questioning to determine whether they experienced syncope, or feeling faint, lightheadedness, dizziness or paraesthesia before study treatment started and after removing the impedance–pH catheter. A 12-lead digital electrocardiogram (ECG) was scheduled at the screening visit, before and 2 h after the first dose of lesogaberan or placebo at each treatment visit, and at the follow-up visit. Blood and urine samples were taken at the pre-entry visit (full laboratory screen), and before and 24 h after the first dose of lesogaberan or placebo at each treatment visit (reduced laboratory screen) to assess clinical chemistry and haematology, and to screen for indications of drug abuse.
The efficacy evaluation of the different doses of lesogaberan was based on data from all patients not affected by major protocol deviations and violations relevant to the analysis of a specific variable. The safety analysis set comprised all patients who received at least one dose of lesogaberan or placebo, and for whom post-dose data were available.

[3] = 2 h after first dose, 30–240 mg

NC[C@@H](F)C[PH](=O)O [lesogaberan, (R)-(3-amino-2-fluoropropyl) phosphinic acid]
effect on GERD symptoms ([1]; 240 mg, phase 2b, partial responders to PPI treatment): does not have a clinically important effect on GERD symptoms | patients with reversible elevated alanine transaminase levels >5 times the upper limit of normal ([1]; phase 2b study): 6 patients | adverse events during active dosing ([2]; 90 mg twice in 24 h): one patient reported headache and nausea | ECG readings ([2]; 12-lead ECG before and 2 h after first dose): No clinically significant changes in ECG readings | adverse events resulting in discontinuation ([2]; 30–240 mg twice in 24 h): no adverse events resulted in discontinuation | serious adverse events during active dosing periods ([2]; 30–240 mg twice in 24 h, safety analysis set n = 27): No serious adverse events were reported | blood pressure compared with placebo [2, 3]: slight decreases in blood pressure | pulse rate compared with placebo [2, 3]: Slight increases in pulse rate
